test system: A549 cells; experiment: Cell viability by MTT method in A549 cells; assay type: cell-based; set-up: concentration or dose not given beside the values; conditions: 72 hours treatment

Row | SMILES | Cell Viability (% inhibition) (A549) [%]
1 | Cc1ccc(S(=O)(=O)N[C@@H](CC(C)C)C(=O)N2CCOCCOCCOCC2)cc1 [Compound 3, (S)-4-methyl-N-(4-methyl-1-oxo-1-(1,4,7-trioxa-10-azacyclododecan-10-yl)pentan-2-yl)benzenesulfonamide] | 8.64
2 | Cc1ccc(S(=O)(=O)N[C@H](CC(C)C)C(=O)N2CCOCCOCCOCC2)cc1 [Compound 4, (R)-4-methyl-N-(4-methyl-1-oxo-1-(1,4,7-trioxa-10-azacyclododecan-10-yl)-Pentan-2-yl)benzenesulfonamide] | 15.11
3 | Cc1ccc(S(=O)(=O)N[C@@H](CC(C)C)C(=O)N2CCS(=O)(=O)CC2)cc1 [Compound 5, (S)—N-(1-(1,1-dioxidothiomorpholino)-4-methyl-1-oxopentan-2-yl)-4-methylbenzenesulfonamide] | 15.98
4 | Cc1ccc(S(=O)(=O)N[C@@H](CC(C)C)C(=O)N2CCC[C@@H]2CO)cc1 [Compound 6, N—((S)-1-((R)-2-(hydroxymethyl)pyrrolidin-1-yl)-4-methyl-1-oxopentan-2-yl)-4-methylbenzenesulfonamide] | 15.98
5 | Cc1ccc(S(=O)(=O)N[C@@H](CC(C)C)C(=O)Nc2ccc(N3CCC(C)CC3)nc2)cc1 [Compound 9, (S)-4-Methyl-2-(4-methylphenylsulfonamido)-N-(6-(4-methylpiperidin-1-yl)pyridin-3-yl)pentanamide] | 78.3
6 | Cc1ccc(S(=O)(=O)N[C@@H](Cc2c[nH]c3ccccc23)C(=O)NCCCc2ccccc2)cc1 [Compound 206, (S)-3-(1H-indol-3-yl)-2-(4-methylphenylsulfonamido)-N-(3-phenylpropyl)propanamide] | 67.48 ± 2.35
7 | Cc1ccc(S(=O)(=O)N[C@@H](Cc2c[nH]c3ccccc23)C(=O)NCCc2ccc(F)cc2)cc1 [Compound 207, (S)—N-(4-fluorophenethyl)-3-(1H-indol-3-yl)-2-(4-methylphenylsulfonamido)propanamide] | 64.02 ± 2.15
8 | Cc1ccc(S(=O)(=O)N[C@@H](Cc2c[nH]c3ccccc23)C(=O)Nc2nc(-c3ccc(C(F)(F)F)cc3)cs2)cc1 [Compound 208, (S)-3-(1H-indol-3-yl)-2-(4-methylphenylsulfonamido)-N-(4-(4-(trifluoromethyl)phenyl)thiazol-2-yl)propanamide] | 82.89 ± 1.06
9 | O=C(NCCc1c[nH]c2ccccc12)[C@H](Cc1c[nH]c2ccccc12)NS(=O)(=O)c1ccc(Br)cc1 [Compound 209, (S)—N-(2-(1H-indol-3-yl)ethyl)-2-(4-bromophenylsulfonamido)-3-(1H-indol-3-yl)propanamide] | 89.27 ± 0.77
10 | COc1ccc(-c2csc(NC(=O)[C@H](Cc3c[nH]c4ccccc34)NC(=O)c3ccc(C)cc3)n2)cc1 [Compound 210, (S)—N-(3-(1H-indol-3-yl)-1-((4-(4-methoxyphenyl)thiazol-2-yl)amino)-1-oxopropan-2-yl)-4-methylbenzamide] | 40.83 ± 8.13
11 | COc1ccc(-c2csc(NC(=O)[C@H](Cc3c[nH]c4ccccc34)NS(=O)(=O)c3ccc(Cl)cc3)n2)cc1 [Compound 211, (S)-2-(4-Chlorophenylsulfonamido)-3-(1H-indol-3-yl)-N-(4-(4-methoxyphenyl)thiazol-2-yl)propanamide] | 83.3 ± 1.04
12 | COc1ccc(-c2csc(NC(=O)[C@H](Cc3c[nH]c4ccccc34)NS(=O)(=O)c3ccc(C(F)(F)F)cc3)n2)cc1 [Compound 212, (S)-3-(1H-indol-3-yl)-N-(4-(4-methoxyphenyl)thiazol-2-yl)-2-(4-(trifluoromethyl)phenylsulfonamido)propanamide] | 84.25 ± 0.99
13 | COc1ccc(-c2csc(NC(=O)[C@H](Cc3c[nH]c4ccccc34)NS(=O)(=O)c3ccc(F)cc3)n2)cc1 [Compound 213, (S)-2-(4-Fluorophenylsulfonamido)-3-(1H-indol-3-yl)-N-(4-(4-methoxyphenyl)thiazol-2-yl)propanamide] | 83.29 ± 1.04
14 | C[C@]12C[C@@H]3C[C@](C)(C1)C[C@@](NC(=O)[C@H](Cc1c[nH]c4ccccc14)NS(=O)(=O)c1ccc(Br)cc1)(C3)C2 [Compound 214, (S)-2-(4-Bromophenylsulfonamido)-N-((1r,3R,5S,7S)-3,5-dimethyladamantan-1-yl)-3-(1H-indol-3-yl)propanamide] | 86.93 ± 0.26
15 | Cc1ccc(C(=O)N[C@@H](Cc2c[nH]c3ccccc23)C(=O)OCc2ccccc2)cc1 [Compound 216, (S)-Benzyl 3-(1H-indol-3-yl)-2-(4-methylbenzamido)propanoate] | 69.96 ± 2.46
16 | COC(=O)c1ccc(-c2csc(NC(=O)[C@H](Cc3c[nH]c4ccccc34)NS(=O)(=O)c3ccc(C)cc3)n2)cc1 [Compound 227, (S)-Methyl 4-(2-(3-(1H-indol-3-yl)-2-(4-methylphenylsulfonamido)propanamido)thiazol-4-yl)benzoate] | 84.63 ± 0.51
17 | Cc1ccc(S(=O)(=O)N[C@@H](Cc2c[nH]c3ccccc23)C(=O)Nc2nc(-c3ccc(C(=O)O)cc3)cs2)cc1 [Compound 228, (S)-4-(2-(3-(1H-indol-3-yl)-2-(4-methylphenylsulfonamido)propanamido)thiazol-4-yl)benzoic acid] | 48.75 ± 5.85
18 | COc1ccc(-c2csc(NC(=O)[C@H](CNc3nc4ccccc4o3)NS(=O)(=O)c3ccc(C)cc3)n2)cc1 [Compound 229, (S)-3-(Benzo[d]oxazol-2-ylamino)-N-(4-(4-methoxyphenyl)thiazol-2-yl)-2-(4-methylphenylsulfonamido)propanamide] | 74.91 ± 2.05
19 | COc1ccc(-c2csc(NC(=O)[C@H](CNC(=O)c3ccccc3)NS(=O)(=O)c3ccc(C)cc3)n2)cc1 [Compound 230, (S)—N-(3-((4-(4-methoxyphenyl)thiazol-2-yl)amino)-2-(4-methylphenylsulfonamido)-3-oxopropyl)benzamide] | 71.56 ± 1.67
20 | COc1ccc(-c2csc(NC(=O)[C@H](CNC(=O)c3cccnc3)NS(=O)(=O)c3ccc(C)cc3)n2)cc1 [Compound 231, (S)—N-(3-((4-(4-methoxyphenyl)thiazol-2-yl)amino)-2-(4-methylphenylsulfonamido)-3-oxopropyl)nicotinamide] | 47.63 ± 5.89
21 | COc1ccc(-c2csc(NC(=O)[C@H](CNC(=O)c3cncnc3)NS(=O)(=O)c3ccc(C)cc3)n2)cc1 [Compound 232, (S)—N-(3-((4-(4-methoxyphenyl)thiazol-2-yl)amino)-2-(4-methylphenylsulfonamido)-3-oxopropyl)pyrimidine-5-carboxamide] | 40.98 ± 2.65

target: T1, AIMP2-DX2 (Homo sapiens, UniProt Q13155); experiment: DX2-nanoluciferase assay (DX2 expression change) in transfected A549 cells; conditions: A549, 4 h, read-out: DX-Nanoluciferase activity (10 μM), 10 μM, 4 hours treatment, A549 cells transfected with nanoluciferase-DX2
T1 sequence (Q13155 1-251 isoform Q13155-2): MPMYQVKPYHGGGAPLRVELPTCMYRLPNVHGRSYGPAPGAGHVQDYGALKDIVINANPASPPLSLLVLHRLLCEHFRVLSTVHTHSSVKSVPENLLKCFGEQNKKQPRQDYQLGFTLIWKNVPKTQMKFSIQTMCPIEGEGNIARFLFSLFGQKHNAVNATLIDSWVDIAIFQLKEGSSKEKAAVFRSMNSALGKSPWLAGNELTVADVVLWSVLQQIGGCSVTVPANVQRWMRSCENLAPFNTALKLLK
Protocol: After cloning DX2 into a plasmid expressing nanoluciferase, the plasmid was transfected into A549 cells. Transfected cells were seeded 1×10^4 per well in a 96-well plate and stabilized for 12 hours. […] Cell viability was measured by the MTT method after 72 hours of treatment with each concentration of the compound in A549 cells.

Row | inhibition at 10 µM [%] | SMILES
22 | 25.2 ± 9.86 | COc1cc(N2CCN(C(C)=O)CC2)ccc1NC(=O)[C@H](Cc1c[nH]c2ccccc12)NS(=O)(=O)c1ccc(C)cc1 [Compound 161, (S)—N-(4-(4-Acetylpiperazin-1-yl)-2-methoxyphenyl)-3-(1H-indol-3-yl)-2-(4-methylphenylsulfonamido)propanamide]
23 | 29.6 ± 14 | O=C(Nc1nc(-c2ccc([N+](=O)[O-])cc2)cs1)[C@H](Cc1c[nH]c2ccccc12)NS(=O)(=O)c1ccc(Br)cc1 [Compound 190, (S)-2-(4-Bromophenylsulfonamido)-3-(1H-indol-3-yl)-N-(4-(4-nitrophenyl)thiazol-2-yl)propanamide]
24 | 45.4 ± 5.61 | CCCCCCCCCC(=O)NNC(=O)[C@H](Cc1c[nH]c2ccccc12)NS(=O)(=O)c1ccc(Br)cc1 [Compound 195, (S)-4-Bromo-N-(1-(2-decanoylhydrazinyl)-3-(1H-indol-3-yl)-1-oxopropan-2-yl)benzenesulfonamide]

same assay, conditions: A549, 4 h, read-out: DX-Nanoluciferase activity (40 μM), 40 μM, 4 hours treatment, A549 cells transfected with nanoluciferase-DX2; inhibitory effect on AIMP2-DX2 expression

Row | inhibition at 40 µM [%] | SMILES
25 | 55.8 ± 14.8 | Cc1ccc(S(=O)(=O)N[C@@H](CC(C)C)C(=O)N2CCOCCOCCOCC2)cc1 [Compound 3, (S)-4-methyl-N-(4-methyl-1-oxo-1-(1,4,7-trioxa-10-azacyclododecan-10-yl)pentan-2-yl)benzenesulfonamide]
26 | 10.7 ± 12.8 | Cc1ccc(S(=O)(=O)N[C@H](CC(C)C)C(=O)N2CCOCCOCCOCC2)cc1 [Compound 4, (R)-4-methyl-N-(4-methyl-1-oxo-1-(1,4,7-trioxa-10-azacyclododecan-10-yl)-Pentan-2-yl)benzenesulfonamide]
27 | 47.4 ± 7.4 | Cc1ccc(S(=O)(=O)N[C@@H](CC(C)C)C(=O)N2CCS(=O)(=O)CC2)cc1 [Compound 5, (S)—N-(1-(1,1-dioxidothiomorpholino)-4-methyl-1-oxopentan-2-yl)-4-methylbenzenesulfonamide]
28 | 39.9 ± 7.4 | Cc1ccc(S(=O)(=O)N[C@@H](CC(C)C)C(=O)N2CCC[C@@H]2CO)cc1 [Compound 6, N—((S)-1-((R)-2-(hydroxymethyl)pyrrolidin-1-yl)-4-methyl-1-oxopentan-2-yl)-4-methylbenzenesulfonamide]
29 | 18.3 | Cc1ccc(S(=O)(=O)N[C@@H](CC(C)C)C(=O)Nc2ccc(N3CCC(C)CC3)nc2)cc1 [Compound 9, (S)-4-Methyl-2-(4-methylphenylsulfonamido)-N-(6-(4-methylpiperidin-1-yl)pyridin-3-yl)pentanamide]
30 | -11.1 ± 19.2 | Cc1ccc(S(=O)(=O)N[C@@H](CC(=O)O)C(=O)Nc2ccc(N3CCOCC3)cc2)cc1 [Compound 145, (S)-3-(4-Methylphenylsulfonamido)-4-(4-morpholinophenylamino)-4-oxobutanoic acid]
31 | -17.7 ± 16.6 | Cc1ccc(S(=O)(=O)N[C@@H](Cc2c[nH]c3ccccc23)C(=O)NCc2cccs2)cc1 [Compound 150, (S)-3-(1H-indol-3-yl)-2-(4-methylphenylsulfonamido)-N-(thiophen-2-ylmethyl)propanamide]
32 | 26.9 ± 6.7 | CC(=O)Nc1cccc(S(=O)(=O)N[C@@H](CC(C)C)C(=O)N2CCOCC2)c1 [Compound 153, (S)—N-(3-(N-(4-methyl-1-morpholino-1-oxopentan-2-yl)sulfamoyl)phenyl)acetamide]
33 | 40.5 ± 7.7 | CC(C)C[C@H](NC(=O)Nc1ccccc1)C(=O)OCc1ccccc1 [Compound 154, (S)-Benzyl 4-methyl-2-(3-phenylureido)pentanoate]
34 | 1.52 ± 5.08 | Cc1ccc(S(=O)(=O)N[C@@H](Cc2c[nH]c3ccccc23)C(=O)NCc2ccco2)cc1 [Compound 178, (S)—N-(furan-2-ylmethyl)-3-(1H-indol-3-yl)-2-(4-methylphenylsulfonamido)propanamide]
35 | -4.97 ± 1.37 | O=C(NCc1ccco1)[C@H](Cc1c[nH]c2ccccc12)NS(=O)(=O)c1ccc(Br)cc1 [Compound 179, (S)-2-(4-Bromophenylsulfonamido)-N-(furan-2-ylmethyl)-3-(1H-indol-3-yl)propanamide]
36 | 45.4 ± 5.61 | CCCCCCCCCC(=O)NNC(=O)[C@H](Cc1c[nH]c2ccccc12)NS(=O)(=O)c1ccc(Br)cc1 [Compound 195, (S)-4-Bromo-N-(1-(2-decanoylhydrazinyl)-3-(1H-indol-3-yl)-1-oxopropan-2-yl)benzenesulfonamide]

Source: patent publication US20220204497A1, “NOVEL COMPOUND HAVING ANTICANCER ACTIVITY, AND METHOD FOR PRODUCING SAME” (MEDICINAL BIOCONVERGENCE RESEARCH CENTER, priority 2019, published 2022)
